Results reported in ChEMBL document CHEMBL1201862, “PubChem BioAssay data set” (2004).
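Results reflect a 48-hour exposure of cells in 96-well plates to compound at five concentrations. Abbreviation: GI50, concentration required for 50% inhibition of growth.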 The source made the active and inactive calls. No stated cut-off is given here; in the data, active = GI50 up to about 1.1 µM and inactive = higher.

Experiments:
Assay in all cases: NCI anticancer screen, dose series, 48 h
786-0 = tested on: 786-0
A498 = tested on: A498
A549 = tested on: A549
ACHN = tested on: ACHN
CAKI-1 = tested on: CAKI-1
CCRF-CEM = tested on: CCRF-CEM
COLO 205 = tested on: COLO 205
DLD-1 = tested on: DLD-1
DMS-114 = tested on: DMS-114
DMS-273 = tested on: DMS-273
EKVX = tested on: EKVX
HCC 2998 = tested on: HCC 2998
HCT-116 = tested on: HCT-116
HCT-15 = tested on: HCT-15
HL-60 = tested on: HL-60
HOP-18 = tested on: HOP-18
HOP-62 = tested on: HOP-62
HOP-92 = tested on: HOP-92
HT-29 = tested on: HT-29
IGROV-1 = tested on: IGROV-1
K562 = tested on: K562
KM-20L2 = tested on: KM-20L2
KM12 = tested on: KM12
LXFL 529 = tested on: LXFL 529
M14 = tested on: M14
M19-MEL = tested on: M19-MEL
MOLT-4 = tested on: MOLT-4
NCI-H23 = tested on: NCI-H23
NCI-H460 = tested on: NCI-H460
OVCAR-3 = tested on: OVCAR-3
OVCAR-4 = tested on: OVCAR-4
OVCAR-8 = tested on: OVCAR-8
RPMI-8226 = tested on: RPMI-8226
RXF 393 = tested on: RXF 393
RXF 631 = tested on: RXF 631
SF-295 = tested on: SF-295
SF-539 = tested on: SF-539
SK-MEL-28 = tested on: SK-MEL-28
SK-MEL-2 = tested on: SK-MEL-2
SK-OV-3 = tested on: SK-OV-3
SN12C = tested on: SN12C
SNB-19 = tested on: SNB-19
SNB-75 = tested on: SNB-75
SNB-78 = tested on: SNB-78
SR = tested on: SR
SW-620 = tested on: SW-620
U-251 = tested on: U-251
UACC-257 = tested on: UACC-257
UACC-62 = tested on: UACC-62
UO-31 = tested on: UO-31
XF498 = tested on: XF498
LOX IMVI = tested on: LOX IMVI
Malme-3M = tested on: Malme-3M
NCI-H226 = tested on: NCI-H226
NCI-H522 = tested on: NCI-H522
OVCAR-5 = tested on: OVCAR-5
SF-268 = tested on: SF-268
SK-MEL-5 = tested on: SK-MEL-5
TK-10 = tested on: TK-10

Structure (SMILES): COC1(Cc2ccccc2)C(=O)c2ccccc2N1C(C)=O (stereo not drawn)
- GI50 (786-0): > 100 µM (inactive)
- GI50 (A498): > 100 µM (inactive)
- GI50 (A549): > 100 µM (inactive)
- GI50 (ACHN): > 100 µM (inactive)
- GI50 (CAKI-1): > 100 µM (inactive)
- GI50 (CCRF-CEM): > 100 µM (inactive)
- GI50 (COLO 205): > 100 µM (inactive)
- GI50 (DLD-1): > 100 µM (inactive)
- GI50 (DMS-114): > 100 µM (inactive)
- GI50 (DMS-273): > 100 µM (inactive)
- GI50 (EKVX): > 100 µM (inactive)
- GI50 (HCC 2998): > 100 µM (inactive)
- GI50 (HCT-116): > 100 µM (inactive)
- GI50 (HCT-15): > 100 µM
- GI50 (HL-60): > 100 µM (inactive)
- GI50 (HOP-18): > 100 µM (inactive)
- GI50 (HOP-62): > 100 µM (inactive)
- GI50 (HOP-92): > 100 µM (inactive)
- GI50 (HT-29): > 100 µM (inactive)
- GI50 (IGROV-1): > 100 µM (inactive)
- GI50 (K562): > 100 µM (inactive)
- GI50 (KM-20L2): > 100 µM (inactive)
- GI50 (KM12): > 100 µM (inactive)
- GI50 (LXFL 529): > 100 µM (inactive)
- GI50 (M14): > 100 µM (inactive)
- GI50 (M19-MEL): > 100 µM (inactive)
- GI50 (MOLT-4): > 100 µM (inactive)
- GI50 (NCI-H23): > 100 µM (inactive)
- GI50 (NCI-H460): > 100 µM (inactive)
- GI50 (OVCAR-3): > 100 µM (inactive)
- GI50 (OVCAR-4): > 100 µM (inactive)
- GI50 (OVCAR-8): > 100 µM (inactive)
- GI50 (RPMI-8226): > 100 µM (inactive)
- GI50 (RXF 393): > 100 µM (inactive)
- GI50 (RXF 631): > 100 µM (inactive)
- GI50 (SF-295): > 100 µM (inactive)
- GI50 (SF-539): > 100 µM (inactive)
- GI50 (SK-MEL-28): > 100 µM (inactive)
- GI50 (SK-MEL-2): > 100 µM (inactive)
- GI50 (SK-OV-3): > 100 µM (inactive)
- GI50 (SN12C): > 100 µM (inactive)
- GI50 (SNB-19): > 100 µM (inactive)
- GI50 (SNB-75): > 100 µM (inactive)
- GI50 (SNB-78): > 100 µM (inactive)
- GI50 (SR): > 100 µM (inactive)
- GI50 (SW-620): > 100 µM (inactive)
- GI50 (U-251): > 100 µM (inactive)
- GI50 (UACC-257): > 100 µM (inactive)
- GI50 (UACC-62): > 100 µM (inactive)
- GI50 (UO-31): > 100 µM (inactive)
- GI50 (XF498): > 100 µM (inactive)

Structure (SMILES): CS/C(=C(\S)c1ccccc1)c1ccccc1
- GI50 (786-0): > 100 µM (inactive)
- GI50 (A498): > 100 µM (inactive)
- GI50 (A549): > 100 µM (inactive)
- GI50 (ACHN): > 100 µM (inactive)
- GI50 (CAKI-1): > 100 µM (inactive)
- GI50 (COLO 205): > 100 µM (inactive)
- GI50 (DLD-1): > 100 µM (inactive)
- GI50 (DMS-114): > 100 µM (inactive)
- GI50 (DMS-273): > 100 µM (inactive)
- GI50 (EKVX): > 100 µM (inactive)
- GI50 (HCC 2998): > 100 µM (inactive)
- GI50 (HCT-116): > 100 µM (inactive)
- GI50 (HCT-15): > 100 µM
- GI50 (HL-60): > 100 µM (inactive)
- GI50 (HOP-18): > 100 µM (inactive)
- GI50 (HOP-62): > 100 µM (inactive)
- GI50 (HOP-92): > 100 µM (inactive)
- GI50 (HT-29): > 100 µM (inactive)
- GI50 (IGROV-1): > 100 µM (inactive)
- GI50 (K562): > 100 µM (inactive)
- GI50 (KM-20L2): > 31.6 µM (inactive)
- GI50 (KM12): > 100 µM (inactive)
- GI50 (LOX IMVI): > 100 µM (inactive)
- GI50 (LXFL 529): > 100 µM (inactive)
- GI50 (M14): > 100 µM (inactive)
- GI50 (M19-MEL): > 100 µM (inactive)
- GI50 (MOLT-4): > 10 µM (inactive)
- GI50 (Malme-3M): > 100 µM (inactive)
- GI50 (NCI-H226): > 100 µM (inactive)
- GI50 (NCI-H23): > 100 µM (inactive)
- GI50 (NCI-H460): > 100 µM (inactive)
- GI50 (NCI-H522): > 100 µM (inactive)
- GI50 (OVCAR-3): > 100 µM (inactive)
- GI50 (OVCAR-4): > 87.1 µM (inactive)
- GI50 (OVCAR-5): > 100 µM (inactive)
- GI50 (OVCAR-8): > 100 µM (inactive)
- GI50 (RPMI-8226): > 100 µM (inactive)
- GI50 (RXF 393): > 91.2 µM (inactive)
- GI50 (RXF 631): > 100 µM (inactive)
- GI50 (SF-268): > 100 µM (inactive)
- GI50 (SF-295): > 100 µM (inactive)
- GI50 (SF-539): > 100 µM (inactive)
- GI50 (SK-MEL-28): > 100 µM (inactive)
- GI50 (SK-MEL-2): > 100 µM (inactive)
- GI50 (SK-MEL-5): > 100 µM (inactive)
- GI50 (SK-OV-3): > 100 µM (inactive)
- GI50 (SN12C): > 100 µM (inactive)
- GI50 (SNB-19): > 100 µM (inactive)
- GI50 (SNB-75): > 100 µM (inactive)
- GI50 (SNB-78): > 100 µM (inactive)
- GI50 (SR): 50.6 µM (inactive)
- GI50 (SW-620): > 100 µM (inactive)
- GI50 (TK-10): > 100 µM (inactive)
- GI50 (U-251): > 100 µM (inactive)
- GI50 (UACC-257): > 100 µM (inactive)
- GI50 (UACC-62): > 100 µM (inactive)
- GI50 (UO-31): > 100 µM (inactive)
- GI50 (XF498): > 100 µM (inactive)

Structure (SMILES): O=c1cc[nH]c2c1ccc1ncccc12
- GI50 (786-0): > 100 µM (inactive)
- GI50 (A498): > 100 µM (inactive)
- GI50 (A549): > 100 µM (inactive)
- GI50 (ACHN): > 100 µM (inactive)
- GI50 (CCRF-CEM): > 100 µM (inactive)
- GI50 (COLO 205): > 100 µM (inactive)
- GI50 (DLD-1): > 100 µM (inactive)
- GI50 (DMS-114): > 100 µM (inactive)
- GI50 (DMS-273): > 100 µM (inactive)
- GI50 (EKVX): > 100 µM (inactive)
- GI50 (HCC 2998): > 100 µM (inactive)
- GI50 (HCT-116): > 100 µM (inactive)
- GI50 (HCT-15): > 100 µM
- GI50 (HL-60): > 100 µM (inactive)
- GI50 (HOP-18): > 100 µM (inactive)
- GI50 (HOP-62): > 100 µM (inactive)
- GI50 (HT-29): > 100 µM (inactive)
- GI50 (IGROV-1): > 100 µM (inactive)
- GI50 (K562): > 100 µM (inactive)
- GI50 (KM-20L2): > 100 µM (inactive)
- GI50 (KM12): > 100 µM (inactive)
- GI50 (LOX IMVI): > 100 µM (inactive)
- GI50 (LXFL 529): > 100 µM (inactive)
- GI50 (M14): > 100 µM (inactive)
- GI50 (M19-MEL): > 100 µM (inactive)
- GI50 (MOLT-4): > 100 µM (inactive)
- GI50 (Malme-3M): > 100 µM (inactive)
- GI50 (NCI-H226): > 100 µM (inactive)
- GI50 (NCI-H23): > 100 µM (inactive)
- GI50 (NCI-H460): > 100 µM (inactive)
- GI50 (NCI-H522): > 100 µM (inactive)
- GI50 (OVCAR-3): > 100 µM (inactive)
- GI50 (OVCAR-4): > 100 µM (inactive)
- GI50 (OVCAR-5): > 100 µM (inactive)
- GI50 (OVCAR-8): > 100 µM (inactive)
- GI50 (RXF 393): > 100 µM (inactive)
- GI50 (RXF 631): > 100 µM (inactive)
- GI50 (SF-268): > 100 µM (inactive)
- GI50 (SF-539): > 100 µM (inactive)
- GI50 (SK-MEL-28): > 100 µM (inactive)
- GI50 (SK-MEL-2): > 100 µM (inactive)
- GI50 (SK-MEL-5): > 100 µM (inactive)
- GI50 (SK-OV-3): > 100 µM (inactive)
- GI50 (SN12C): > 100 µM (inactive)
- GI50 (SNB-19): > 100 µM (inactive)
- GI50 (SNB-75): > 100 µM (inactive)
- GI50 (SNB-78): > 100 µM (inactive)
- GI50 (SR): > 100 µM (inactive)
- GI50 (SW-620): > 100 µM (inactive)
- GI50 (TK-10): > 100 µM (inactive)
- GI50 (U-251): > 100 µM (inactive)
- GI50 (UACC-257): > 100 µM (inactive)
- GI50 (UACC-62): > 100 µM (inactive)
- GI50 (UO-31): > 100 µM (inactive)
